Measured values reported in US12605347B2, “Solid dispersion of ursolic acid and potassium salt” (Indena S.P.A., priority 2019, dated 2026).
Structures can show the parent of a compound that is named as a salt. Where two headings read alike, the source gives them in different places.

Assays:
[1] = low solubility-low permeability; cited from earlier work
physchem = details: 25 °C, thermodynamic from solid
Description: (§1) Analysis of the solid dispersions and the measure of the solubility in simulated gastrointestinal fluids were performed by HPLC with the instrument and conditions reported below.
(§2) Stirring was stopped and any undissolved solid was let to decant. The supernatant was filtered through a hydrophilic 0.2 μm PTFA filter and analyzed for the content of ursolic acid.
(§3) The same procedure as Test 1 was followed, using 100 mg of ursolic acid instead of the dispersion of example 1.
(§4) The same procedure as Test 1 was followed, using 100 mg ursolic acid potassium salt instead of the dispersion of example 1.

[2] = Dissolution test: solubility in simulated gastrointestinal fluids, ursolic acid in the supernatant by HPLC; details: FaSSGF pH = 1.6; stirred 2 hours at 25° C., supernatant filtered 0.2 μm
Description: as §1, §2, §3, §4

Molecule | Ursolic acid in solution (pH 1.6) | Ursolic acid in solution (pH 5) | Ursolic acid in solution (pH 6.5) | class according to the biopharmaceutical classification system (BCS) [1] | solubility thermodynamic at 2 h (physchem; FaSSIF (simulated gastrointestinal fluid), pH 6.5, fassif) | solubility thermodynamic at 2 h (physchem; FeSSIF (simulated gastrointestinal fluid), pH 5, fessif) | Ursolic acid in solution [2]
3β-hydroxy-urs-12-en-28-oic acid [ursolic acid] | <LOD* | 0.083 mg/mL | 0.032 mg/mL | class IV |  |  | 
C[C@H]1[C@H](C)CC[C@]2(C(=O)O)CC[C@]3(C)C(=CC[C@@H]4[C@@]5(C)CC[C@H](O)C(C)(C)[C@@H]5CC[C@]43C)[C@H]12 [ursolic acid potassium salt] |  |  |  |  | 154 µg/mL | 318 µg/mL | <LOD*
